Key:
[1] = test system: Huh7 cells; assay: CCK8 cell viability assay, Huh7; type: cell-based, human; conditions: for Cell Viability (100%), 20 μM, 48 h, Huh7: Huh7, CCK8, control taken as 100%; for IC50: 48 h, Huh7, CCK8, read-out: half maximal inhibitory concentration (IC50), Huh7
Protocol: (§1) This study aimed to assess the anti-proliferative activity of dolutegravir-1,2,3-triazole derivatives on hepatocellular carcinoma cell lines, Huh7 and hepG2. A comprehensive CCK8 assay was employed to evaluate the impact of these compounds on cell viability, with cells treated at a concentration of 20 μM for 48 h. HRM cells, a normal cell line, were included as a control for comparative analysis.
(§2) Human hepatocellular carcinoma cell lines Huh7 and hepG2 were obtained from ATCC (Manassas, VA, USA). Cells were cultured in DMEM or RPMI 1640 medium containing 10% FBS and 1% penicillin/streptomycin at 37 °C with a 5% CO2-humidified atmosphere.
(§3) CCK8 assay was used to measure cell viability. Cells with a density of 1 × 10^4 cells/well were seeded on 96-well plates. After adhesion, cells were treated with different diluted compounds or vehicle control DMSO and continued to be cultured for 48 h or 72 h, respectively. Then, CCK8 reagent was added for one hour incubation at 37 °C with 5% CO2. Absorbance was measured using a Microplate spectrophotometer (Thermo, Waltham, MA, USA) at 450 nm. The ratio of cell viability of control was taken as 100%. […] Then, IC50 of compounds were investigated using the prism statistical software 7.0.

[2] = test system: hepG2 cells; assay: CCK8 cell viability assay, hepG2; type: cell-based, human; conditions: for Cell Viability (100%), 20 μM, 48 h, hepG2: hepG2, CCK8, control taken as 100%; for IC50: 48 h, hepG2, CCK8, read-out: half maximal inhibitory concentration (IC50), hepG2
Protocol: as §1, §2, §3

[3] = test system: HRM cells (human renal mesangial cells); assay: in vitro; type: cell-based; conditions: 20 µM
Protocol: as §1, with “analysis. […]” for “analysis.”
as §3

SMILES | Cell Viability (100%), 20 μM, 48 h, Huh7 [1] | IC50 [1] | Cell Viability (100%), 20 μM, 48 h, hepG2 [2] | IC50 [2] | Cell Viability (100%), 20 μM, 48 h, HRM [3]
COc1c2n(cc(C(=O)Nc3cccc(-c4cn(-c5ccccc5I)nn4)c3)c1=O)CC1OCCC(C)N1C2=O (stereo not shown) [Compound 5w] | 49.87% | 15.9 ± 0.31 µM | 54.35% | 25.7 ± 0.42 µM | 92.77%
COc1c2n(cc(C(=O)Nc3cccc(-c4cn(Cc5ccccc5C)nn4)c3)c1=O)CC1OCCC(C)N1C2=O (stereo not shown) [Compound 6g] | 39.11% | – | 52.95% | – | 101.52%
CCc1ccc(-n2cc(-c3cccc(NC(=O)c4cn5c(c(OC)c4=O)C(=O)N4C(C)CCOC4C5)c3)nn2)cc1 (stereo not shown) [Compound 5m] | 36.41% | – | 77.30% | – | 101.13%
COc1ccc(-n2cc(-c3cccc(NC(=O)c4cn5c(c(OC)c4=O)C(=O)N4C(C)CCOC4C5)c3)nn2)cc1OC (stereo not shown) [Compound 5j] | 65.52% | – | 77.13% | – | 108.54%
CCc1ccccc1-n1cc(-c2cccc(NC(=O)c3cn4c(c(OC)c3=O)C(=O)N3C(C)CCOC3C4)c2)nn1 (stereo not shown) [Compound 5k] | 48.55% | 16.9 ± 0.48 µM | 50.62% | 15.2 ± 1.15 µM | 0.81%
COc1c2n(cc(C(=O)Nc3cccc(-c4cn(Cc5ccccc5F)nn4)c3)c1=O)CC1OCCC(C)N1C2=O (stereo not shown) [Compound 6f] | 54.58% | – | 63.23% | – | 102.19%
COc1c2n(cc(C(=O)Nc3cccc(-c4cn(-c5ccccc5C(F)(F)F)nn4)c3)c1=O)CC1OCCC(C)N1C2=O (stereo not shown) [Compound 5c] | 36.28% | 18.7 ± 0.53 µM | 54.14% | 18.3 ± 1.14 µM | 2.65%
COc1c2n(cc(C(=O)Nc3cccc(-c4cn(Cc5cccc(Br)c5)nn4)c3)c1=O)CC1OCCC(C)N1C2=O (stereo not shown) [Compound 6e] | 20.45% | 16.2 ± 0.37 µM | 55.14% | 19.7 ± 2.19 µM | 102.27%
COc1c2n(cc(C(=O)Nc3cccc(-c4cn(-c5ccccc5)nn4)c3)c1=O)CC1OCCC(C)N1C2=O (stereo not shown) [Compound 5o] | 67.64% | – | 80.21% | – | 100.28%
COc1c2n(cc(C(=O)Nc3cccc(-c4cn(-c5cccc(C)c5)nn4)c3)c1=O)CC1OCCC(C)N1C2=O (stereo not shown) [Compound 5f] | 15.92% | 8.63 ± 0.33 µM | 12.96% | 12.1 ± 0.77 µM | 66.43%
COc1c2n(cc(C(=O)Nc3cccc(-c4cn(-c5c(C)cc(C)cc5C)nn4)c3)c1=O)CC1OCCC(C)N1C2=O (stereo not shown) [Compound 5z] | 66.22% | – | 63.22% | – | 100.35%
COc1c2n(cc(C(=O)Nc3cccc(-c4cn(-c5ccccc5Cl)nn4)c3)c1=O)CC1OCCC(C)N1C2=O (stereo not shown) [Compound 5v] | 37.66% | 42.2 ± 1.1 µM | 38.75% | 24.8 ± 2.21 µM | 95.10%
COc1c2n(cc(C(=O)Nc3cccc(-c4cn(Cc5ccccc5C(F)(F)F)nn4)c3)c1=O)CC1OCCC(C)N1C2=O (stereo not shown) [Compound 6h] | 50.37% | – | 66.45% | – | 93.73%
COc1c2n(cc(C(=O)Nc3cccc(-c4cn(-c5ccccc5F)nn4)c3)c1=O)CC1OCCC(C)N1C2=O (stereo not shown) [Compound 5a] | 83.32% | – | 90.43% | – | 71.18%
COc1c2n(cc(C(=O)Nc3cccc(-c4cn(Cc5ccccc5)nn4)c3)c1=O)CC1OCCC(C)N1C2=O (stereo not shown) [Compound 6b] | 68.00% | – | 57.81% | – | 99.53%
COc1c2n(cc(C(=O)Nc3cccc(-c4cn(-c5ccc(C)cc5)nn4)c3)c1=O)CC1OCCC(C)N1C2=O (stereo not shown) [Compound 5y] | 79.52% | – | 69.40% | – | 103.82%
CCOc1ccc(-n2cc(-c3cccc(NC(=O)c4cn5c(c(OC)c4=O)C(=O)N4C(C)CCOC4C5)c3)nn2)cc1 (stereo not shown) [Compound 5h] | 72.06% | – | 90.41% | – | 102.23%
COc1cccc(Cn2cc(-c3cccc(NC(=O)c4cn5c(c(OC)c4=O)C(=O)N4C(C)CCOC4C5)c3)nn2)c1 (stereo not shown) [Compound 6d] | 72.78% | – | 65.65% | – | 98.59%
COc1c2n(cc(C(=O)Nc3cccc(-c4cn(-c5cc(C(F)(F)F)cc(C(F)(F)F)c5)nn4)c3)c1=O)CC1OCCC(C)N1C2=O (stereo not shown) [Compound 5r] | 80.13% | – | 78.52% | – | 101.27%
COc1cc([N+](=O)[O-])ccc1-n1cc(-c2cccc(NC(=O)c3cn4c(c(OC)c3=O)C(=O)N3C(C)CCOC3C4)c2)nn1 (stereo not shown) [Compound 5b] | 110.94% | – | 93.94% | – | 112.94%
COc1c2n(cc(C(=O)Nc3cccc(-c4cn(Cc5ccccc5Br)nn4)c3)c1=O)CC1OCCC(C)N1C2=O (stereo not shown) [Compound 6c] | 39.13% | 13.9 ± 0.81 µM | 46.80% | 27.8 ± 2.94 µM | 105.55%
COc1c2n(cc(C(=O)Nc3cccc(-c4cn(-c5ccc(F)cc5)nn4)c3)c1=O)CC1OCCC(C)N1C2=O (stereo not shown) [Compound 5g] | 90.24% | – | 105.19% | – | 103.67%
COc1c2n(cc(C(=O)Nc3cccc(-c4cn(-c5ccc(C(F)(F)F)cc5)nn4)c3)c1=O)CC1OCCC(C)N1C2=O (stereo not shown) [Compound 5d] | 77.89% | – | 79.96% | – | 108.43%
COc1c2n(cc(C(=O)Nc3cccc(-c4cn(-c5ccc(C(C)(C)C)cc5)nn4)c3)c1=O)CC1OCCC(C)N1C2=O (stereo not shown) [Compound 5n] | 54.04% | – | 77.30% | – | 108.06%
COc1cccc(-n2cc(-c3cccc(NC(=O)c4cn5c(c(OC)c4=O)C(=O)N4C(C)CCOC4C5)c3)nn2)c1 (stereo not shown) [Compound 5l] | 46.30% | 7.62 ± 1.03 µM | 33.91% | 10.6 ± 0.67 µM | 94.97%
COc1c2n(cc(C(=O)Nc3cccc(-c4cn(Cc5cc(Br)cc(Br)c5)nn4)c3)c1=O)CC1OCCC(C)N1C2=O (stereo not shown) [Compound 6a] | 75.97% | – | 66.48% | – | 84.46%

From PMC11052077, “Discovery of Dolutegravir Derivative against Liver Cancer via Inducing Autophagy and DNA Damage” (Molecules, 2024)
